Measurements: article PMC8816498, “A Customized Screening Tool Approach for the Development of a Self-Nanoemulsifying Drug Delivery System (SNEDDS)” (AAPS PharmSciTech, 2021)

Legend:
[1] = Saturation solubility of the drug in individual excipients; format: physicochemical; details: 37 °C, 24 h
Protocol: The saturation solubility of each drug in each of the individual excipients was investigated in triplicate by the following procedure: first, drug and excipients were blended in 2-ml safe lock test tubes ([17], [23], [26]). After short, intense vortex mixing, the mixtures were agitated at 1000 rpm for 24 h at 37 °C under light protection using a ThermoMixer® C (Eppendorf AG, Hamburg, Germany) to achieve an equilibrium state ([7], [12], [16], [17], [23], [26], [27]). […] After centrifugation at 37 °C, a defined mass (50 mg) of the supernatant was withdrawn and transferred to a 25-ml volumetric flask, and the sample was diluted with methanol to a total volume of 25.0 ml. Finally, a sample of 1 ml was analyzed using one of the previously described drug-specific HPLC methods.

[2] = media of pH 1, 4.5 and 6.8; 120 min; at the time of manufacture
Protocol: All experiments were performed in triplicate with 25 mg of the specific drug, or an equivalent amount of drug-loaded SNEDDS (300 µl) using USP apparatus II (DT 800 LH, ERWEKA GmbH, Langen, Germany). Dissolution was studied in 0.1 N hydrochloric acid (pH 1.0), acetate buffer USP (pH 4.5), and phosphate buffer USP (pH 6.8). All experiments were performed in a media volume of 500 ml at 37 ± 0.5 °C using a paddle speed of 100 rpm. All samples were withdrawn automatically using a fraction collector, equipped with cannula filters of 10 µm pore size and manually diluted 1:1 (v/v) with acetonitrile before HPLC analysis.

Solubility in Miglyol 812 [1] | Solubility in co-solvents ([1]; Tetra EG, Transcutol HP, Carbowax PEG 400) | Dissolution behaviour [2] | SMILES
exceptionally low solubility | high solubility | poor solubility | Cc1ccc(-c2cc(C(F)(F)F)nn2-c2ccc(S(N)(=O)=O)cc2)cc1 [Celecoxib]
– | – | poor solubility | CC(C)OC(=O)C(C)(C)Oc1ccc(C(=O)c2ccc(Cl)cc2)cc1 [Fenofibrate]
